The source of these data is PMC3113527 (Journal of agricultural and food chemistry, 2011).

By inhibition is commonly meant how much of the control response was suppressed.

In test [1] the target is secreted phospholipase A2 (PLA2) (Apis mellifera, UniProt P00630). Description: biochemical. As to conditions: read-out: Inhibition of PLA2.
Test [2] addresses T1, Lipase from porcine pancreas (PL) (Sus scrofa, UniProt P00591).
T1 sequence (P00591 1-450): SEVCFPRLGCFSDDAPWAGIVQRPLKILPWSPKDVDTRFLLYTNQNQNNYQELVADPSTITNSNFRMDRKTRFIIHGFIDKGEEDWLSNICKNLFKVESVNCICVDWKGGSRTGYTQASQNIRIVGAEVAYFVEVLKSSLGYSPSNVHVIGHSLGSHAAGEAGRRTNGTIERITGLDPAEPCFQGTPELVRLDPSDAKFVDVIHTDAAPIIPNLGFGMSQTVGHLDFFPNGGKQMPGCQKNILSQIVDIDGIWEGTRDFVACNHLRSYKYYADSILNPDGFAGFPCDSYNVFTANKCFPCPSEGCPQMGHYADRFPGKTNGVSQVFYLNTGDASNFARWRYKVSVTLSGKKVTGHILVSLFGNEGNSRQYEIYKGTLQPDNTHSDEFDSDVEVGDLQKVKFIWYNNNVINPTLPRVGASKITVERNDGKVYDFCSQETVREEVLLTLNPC
Description: Pancreatic lipase inhibition assay in vitro. As to conditions: read-out: Inhibition of PL. It counts as biochemical.

Test [3] has as its system PLA2. As to conditions: at 2 mM; cited from earlier work.

Structures are written as SMILES.

Chain of secreted phospholipase A2 (PLA2) (P00630 34-167 limits assumed): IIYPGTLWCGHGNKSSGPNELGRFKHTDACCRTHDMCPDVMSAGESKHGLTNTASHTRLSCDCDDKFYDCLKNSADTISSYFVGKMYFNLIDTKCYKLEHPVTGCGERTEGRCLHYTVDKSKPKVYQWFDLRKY

Regarding `Oc1cc(O)c2c(c1)O[C@H](c1ccc(O)c(O)c1)[C@H](O)C2` [EC, (−)-epicatechin], in test [1], the inhibition at 100 µM was 4.5%. For the same compound, the inhibition at 20 µM in test [2] came to 15%. As for `O=C(O[C@@H]1Cc2c(O)cc(O)cc2O[C@@H]1c1cc(O)c(O)c(O)c1)c1cc(O)c(O)c(O)c1` [EGCG], the “Inhibition of PLA2 in vitro” value in test [3] was 64.9%. For the compound `CCCCCCCCCCC[C@@H](C[C@@H]1OC(=O)[C@H]1CCCCCC)OC(=O)[C@H](CC(C)C)NC=O` [Orlistat], in test [2], the inhibition at 10 µM was 72%.
